As usually defined, the IC50 is the concentration needed to halve the response being measured. A higher IC50 goes with weaker potency in that assay.

Test [1] has as its target Delta-5-Desaturase (D5D) (Homo sapiens (Human), UniProt O60427). In words: In vitro measurement of Delta-5-Desaturase inhibitory activity using DGLA-CoA and Arachidonyl-CoA mass spectrometric assays. Particulars: membrane preparations of D5D-overexpressing HEK293 6E cells; averaged over at least two independent runs. The format is biochemical. In a few lines:
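Membranes from D5D-overexpressing HEK293 6E cells (10 μg/mL final) in Tris pH 7.5 with MgCl2, octyl glucoside and TCEP were mixed 1:1 with substrate solution (0.01 mM DGLA, 0.25 mM NADH, 0.25 mM ATP, 0.05 mM CoA) for 1 h at ambient temperature. RapidFire SPE-MS/MS MRM; IC50 by 4-parameter fit, ≥2 runs.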

Test [2] concerns Diet-Induced Obese (DIO) mice. In words: Assessment of D5D inhibitor in Diet-Induced Obese (DIO) mice. Type of test: in vivo. Particulars: for Blood glucose: day 52, 4-hour fasted; for Cholesterol / Insulin / LDL cholesterol / Triglycerides: day 52, plasma; for Fat mass / Lean mass: day 54, EchoMRI; for AA / DGLA: day 56, plasma; for Body weight / Liver weights / epididymal WAT / inguinal WAT: day 56. From the text:
Assessment of D5D) Inhibitor in Diet-Induced Obese (DIO) Mice
Thirty-six male C57BL/6J DIO mice (Jackson Laboratories, stock No.: 380050) fed high-fat diet (Research Diets, Inc., D12492) for 14 weeks. All animals were given free access to water and chow. Animals were acclimated to per os dosing for 3 days prior to the start of the experiment. Animals were randomized on body weight, fat mass, lean mass, and blood glucose concentrations in to 4 groups of 8 animals per group. Animals were daily dosed per os with either: vehicle (2% hydroxypropyl methyl cellulose, 1% Tween 80 in water), Example 1-68 at 30 mg/kg, Example 1-34 at 10 mg/kg, and Example 1-27 at 10 mg/kg, all compounds were formulated in 2% hydroxypropyl methylcellulose, 1% Tween 80 in water. […] On day 52, a 4-hour fasted blood collection was performed, blood glucose was immediately measured, and plasma samples were created from the remaining blood and used to measure cholesterol, triglycerides, LDL cholesterol, and insulin. On day 54, body composition (EchoMRI) was determined. On day 56 the animals were sacrificed, and plasma was collected for measurement of DGLA and AA concentrations. Liver, epididymal white adipose tissue and inguinal white adipose tissue weights were recorded. Data was analyzed using GraphPad Prism v. 7.04.
All compounds led to weight loss over the course of the experiment (Table 28) compared to vehicle controls. Consistently fat and lean mass was reduced, along with lower inguinal and epididymal white adipose tissue (WAT) weights at necropsy. Blood glucose and plasma insulin levels were both reduced by the FADS1 inhibitors, along with reductions in plasma cholesterol, LDL cholesterol and triglycerides. Evidence of target engagement was established by observing increases in plasma DGLA and decreases in plasma AA.

The target in test [3] is Delta-5-Desaturase (D5D) (Mus musculus (Mouse), UniProt Q920L1). In words: In vivo measurement of Delta-5-Desaturase inhibitory activity (plasma AA/DGLA ratio in DIO mice). Particulars: single oral dose 30 mg/kg, read-out: Average % D5D Inhibition expressed as Plasma Endogenous AA/DGLA Ratio. As for the experimental part: In vivo Measurement of Delta-5-Desaturase Inhibitory Activity
Delta-5-Desaturase (D5D) (Mus musculus (Mouse), UniProt Q920L1), sequence (Q920L1 whole entry): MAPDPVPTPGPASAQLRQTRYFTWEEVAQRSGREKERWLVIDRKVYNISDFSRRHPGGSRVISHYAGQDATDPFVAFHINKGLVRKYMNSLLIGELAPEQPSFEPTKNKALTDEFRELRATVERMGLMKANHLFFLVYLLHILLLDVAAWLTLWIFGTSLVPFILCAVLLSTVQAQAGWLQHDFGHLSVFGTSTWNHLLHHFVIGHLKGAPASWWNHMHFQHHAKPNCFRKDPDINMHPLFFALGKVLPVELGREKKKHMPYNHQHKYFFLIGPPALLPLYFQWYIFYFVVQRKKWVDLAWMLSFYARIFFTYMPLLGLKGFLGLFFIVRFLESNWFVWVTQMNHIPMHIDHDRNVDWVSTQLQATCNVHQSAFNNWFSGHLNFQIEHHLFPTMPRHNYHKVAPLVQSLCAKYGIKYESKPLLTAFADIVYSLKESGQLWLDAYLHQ
Diet-induced obese (DIO; Jackson Laboratories strain #3800050) mice were used to screen for pharmacodynamic (PD) activity of test compounds. Generally, 14 to 24 week old DIO mice, were administered test compounds formulated in the vehicle of 2% hydroxypropyl methylcellulose (HPMC) and 1% Tween80. Animals were dosed on body weight by oral gavage with a single dose (30 mg/kg) for PD studies. Necropsy included plasma collection for PUFA analysis. 10 μl of plasma or standards diluted in surrogate matrix (65 g/l bovine serum albumin in Dulbecco's phosphate-buffered saline) were mixed with 10 μl of an internal standard (100 μM alpha-linolenic acid-d14 (ALA-d14, Cayman Chemical)) in a 96 well plate. 100 μl of 2N NAOH was added to the mixture for subsequent saponification at 65° C. for 1 hour. The mixture was then acidified with 50 μl of formic acid followed by two consecutive hexane extractions. Hexane (500 μl) was added and the mixture thoroughly mixed by vortexing, followed by centrifugation at 4,000 rpm for 15 min. The hexane phase was transferred to a new 1 ml 96 well plate and the remaining aqueous layer was extracted with hexane. The organic extracts were combined and the solvent was removed by placing the plate under nitrogen gas at 55° C. 250 μl of 90% methanol was added to the plate followed by vortexing for 2 minutes. 200 μl of the samples were transferred to a new 96 well polypropylene plate. The samples were analyzed on a LC-MS/MS for the following PUFAs: arachidonic acid (AA), dihomo-gamma-linolenic acid (DGLA), with ALA-d14 as the internal standard. Description of the LC-MS/MS method: 5 μl of sample was injected onto a Poroshell 120 EC-C18 3.0×50 mm, 1.9 μm id column. […] The PUFA peak areas were quantified by using the SCIEX Analyst software. […] The relative decrease of the AA/DGLA ratio of the test compound administered group relative to the vehicle administered group was calculated and used as an index for the degree of D5D inhibition.
The results presented in Table 27 were obtained using certain compounds described herein in the in vivo protocol described above.

[4] abbreviates: day 50-52, 10 mg/kg daily per os.

Delta-5-Desaturase (D5D) (Homo sapiens (Human), UniProt O60427), sequence (O60427 whole entry, species assumed): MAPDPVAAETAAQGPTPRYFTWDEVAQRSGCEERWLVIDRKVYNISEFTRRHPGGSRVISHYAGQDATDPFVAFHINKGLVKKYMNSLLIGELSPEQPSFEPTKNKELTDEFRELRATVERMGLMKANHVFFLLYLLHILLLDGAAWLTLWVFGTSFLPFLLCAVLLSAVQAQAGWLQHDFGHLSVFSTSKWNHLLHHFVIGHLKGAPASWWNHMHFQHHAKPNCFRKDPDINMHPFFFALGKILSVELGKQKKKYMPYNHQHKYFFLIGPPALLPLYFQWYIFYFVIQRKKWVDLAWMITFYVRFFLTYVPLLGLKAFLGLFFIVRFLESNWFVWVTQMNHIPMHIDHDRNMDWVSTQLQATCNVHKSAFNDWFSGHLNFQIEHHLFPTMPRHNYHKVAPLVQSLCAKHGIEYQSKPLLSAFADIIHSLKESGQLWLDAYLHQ

Turning to `COc1ccn2c(=O)c(-c3cnn(CC(F)(F)C(F)(F)F)c3)c(C(F)(F)F)nc2c1` [Example 1-68, 8-methoxy-3-(1-(2,2,3,3,3-pentafluoropropyl)-1H-pyrazol-4-yl)-2-(trifluoromethyl)-4H-pyrido[1,2-a]pyrimidin-4-one], the IC50 in test [1] turned out to be 11.6 nM. In test [2] (day 0-2, 30 mg/kg daily per os), this compound returned a Food consumption of 2.7 ± 0.1 g/day. This compound also registered a Food consumption in test [2] (day 50-52, 30 mg/kg daily per os) of 2.6 ± 0.1 g/day. Further, in test [2] (30 mg/kg daily per os), the Blood glucose is reported as 146.6 ± 7.1 mg/dL, the Cholesterol came to 166.2 ± 7.8 mg/dL, the Insulin amounted to 1.1 ± 0.2 ng/mL and the LDL cholesterol turned out to be 86.5 ± 12.5 mg/dL. In test [2] (30 mg/kg daily per os), this compound displayed a Triglycerides of 14.5 ± 1.0 mg/dL, a Fat mass of 13.3 ± 1.0 g, a Lean mass of 26.7 ± 0.5 g and an AA of 38.0 ± 1.6 µg/mL. In test [2] (30 mg/kg daily per os), the DGLA was found to be 258.4 ± 8.5 µg/mL, the Body weight is listed as 40.7 ± 1.5 g, the Liver weights is 2.9 ± 0.2 g and the “epididymal WAT” value was determined as 1.6 ± 0.1 g. Moreover, the “inguinal WAT” value in test [2] (30 mg/kg daily per os) was determined as 1.6 ± 0.2 g. Further, the inhibition in vivo at 30 mg/kg in test [3] is 80%.
Regarding `COc1ccn2c(=O)c(-c3cnn(CC(F)(F)C(F)(F)F)c3)c(C(F)(F)F)nc2n1` [Example 1-34, 8-methoxy-3-(1-(2,2,3,3,3-pentafluoropropyl)-1H-pyrazol-4-yl)-2-(trifluoromethyl)-4H-pyrimido[1,2-a]pyrimidin-4-one], in test [1], the IC50 came to 30.7 nM. This compound returned a Food consumption in test [2] (day 0-2, 10 mg/kg daily per os) of 2.2 ± 0.1 g/day. In addition, the Food consumption in test [2] (setting [4]) is reported as 3.0 ± 0.1 g/day. For the same compound, in test [2] (10 mg/kg daily per os), the Blood glucose is recorded as 150.5 ± 8.3 mg/dL, the Cholesterol was found to be 177.1 ± 12.6 mg/dL, the Insulin was 0.6 ± 0.2 ng/mL and the LDL cholesterol is recorded as 88.6 ± 9.2 mg/dL. In test [2] (10 mg/kg daily per os), this compound came in with a Triglycerides of 15.6 ± 2.3 mg/dL, a Fat mass of 7.4 ± 0.9 g, a Lean mass of 26.6 ± 0.7 g and an AA of 29.4 ± 0.9 µg/mL. In test [2] (10 mg/kg daily per os), the DGLA worked out at 161.4 ± 8.5 µg/mL, the Body weight is recorded as 34.7 ± 1.6 g, the Liver weights came to 2.9 ± 0.3 g and the “epididymal WAT” value is reported as 0.9 ± 0.1 g. Besides, the “inguinal WAT” value in test [2] (10 mg/kg daily per os) is listed as 0.8 ± 0.1 g. Moreover, the inhibition in vivo at 30 mg/kg in test [3] was found to be 66%.
In test [1], `N#Cc1ccn2c(=O)c(-c3cnn(CC(F)(F)C(F)(F)F)c3)c(C(F)(F)F)nc2c1` [Example 1-27, 4-oxo-3-(1-(2,2,3,3,3-pentafluoropropyl)-1H-pyrazol-4-yl)-2-(trifluoromethyl)-4H-pyrido[1,2-a]pyrimidine-8-carbonitrile] registered an IC50 of 18.7 nM. In test [2] (day 0-2, 10 mg/kg daily per os), this compound gave a Food consumption of 2.5 ± 0.1 g/day. This compound also yielded a Food consumption in test [2] (setting [4]) of 3.1 ± 0.1 g/day. In test [2] (10 mg/kg daily per os), this compound registered a Blood glucose of 178.8 ± 7.5 mg/dL, a Cholesterol of 191.3 ± 14.5 mg/dL, an Insulin of 3.3 ± 1.2 ng/mL and an LDL cholesterol of 104.6 ± 9.1 mg/dL. Besides, in test [2] (10 mg/kg daily per os), the Triglycerides came to 24.1 ± 1.2 mg/dL, the Fat mass amounted to 16.9 ± 0.5 g, the Lean mass came out at 28.1 ± 0.5 g and the AA was 60.8 ± 1.9 µg/mL. In test [2] (10 mg/kg daily per os), the DGLA is 310.3 ± 13.7 µg/mL, the Body weight is recorded as 45.7 ± 1.1 g, the Liver weights was 2.8 ± 0.2 g and the “epididymal WAT” value stood at 1.8 ± 0.1 g. The “inguinal WAT” value in test [2] (10 mg/kg daily per os) was 1.9 ± 0.1 g. In addition, the inhibition in vivo at 30 mg/kg in test [3] amounted to 78%.
